In data set [1] the test system is Staphylococcus aureus. Put plainly: Antibacterial activity against methicillin-resistant Staphylococcus aureus. In kind it is functional.
Data set [2] in a line: Cytotoxicity against mouse fibroblast cells assessed as cell viability at […] (reference value: 90.23 %). Details: dose or concentration left out as unconfirmed. It counts as toxicity, cell-based. The settings on record: read-out: Activity.
In a further data set the test system is Pseudomonas aeruginosa. Put plainly: Antimicrobial activity against Pseudomonas aeruginosa by serial dilution method. In kind it is functional.
The subject of the next data set is Salmonella typhi. Put plainly: Antimicrobial activity against Salmonella typhi by serial dilution method. In kind it is functional, Salmonella enterica subsp. enterica serovar Typhi. The note with it: Salmonella enterica.
The test system of another data set is Escherichia coli. Put plainly: Antimicrobial activity against Escherichia coli by serial dilution method. It counts as functional.
The subject of data set [3] is Staphylococcus aureus. Put plainly: Antimicrobial activity against Staphylococcus aureus by serial dilution method. In kind it is functional.
Another data set relates to Shigella flexneri. Put plainly: Antimicrobial activity against Shigella flexneri by serial dilution method. It counts as functional.
The test system of another data set is Candida albicans. Put plainly: Antimicrobial activity against Candida albicans by serial dilution method. It counts as functional.
The subject of another data set is Listeria monocytogenes. Put plainly: Antimicrobial activity against Listeria monocytogenes by serial dilution method. It counts as functional.
The test system of another data set is Bacillus cereus. Put plainly: Antimicrobial activity against Bacillus cereus by serial dilution method. In kind it is functional.

Molecules are shown by their SMILES. In brackets after ≈: the same amount, converted by molar mass.

A word on the MIC: it is the smallest concentration in the dilution series that meets the test's criterion for growth inhibition.

In the data set with Staphylococcus aureus [1], `CC(=O)/C(=C\c1cn(CC(=O)N2CCCCC2)c2ccccc12)n1c([N+](=O)[O-])cnc1C` came in with a minimum inhibitory concentration (MIC) of 1 µg/mL (≈ 2.3 µM). Turning to `CCOC(=O)C1(C(=O)OCC)C[C@@H](c2c[nH]c3ccccc23)O[C@H]1c1cn(-c2ccccc2)nc1-c1ccccc1`, in data set [2], the viability was determined as 93.2%. Still for that read-out and setting: next, `CCOC(=O)C1(C(=O)OCC)C[C@@H](c2c[nH]c3ccc(Cl)cc23)O[C@H]1c1cn(-c2ccccc2)nc1-c1ccc(OC)cc1`: 91.4%; `CCOC(=O)C1(C(=O)OCC)C[C@@H](c2c[nH]c3ccc(Cl)cc23)O[C@H]1c1cn(-c2ccccc2)nc1-c1ccccc1`: 94.3%; `CCOC(=O)C1(C(=O)OCC)C[C@@H](c2c[nH]c3ccc(Cl)cc23)O[C@H]1c1cn(-c2ccccc2)nc1-c1ccc(C)cc1`: 97.6%. On to `CCOC(=O)C1(C(=O)OCC)C[C@@H](c2c[nH]c3ccc(C)cc23)O[C@H]1c1cn(-c2ccccc2)nc1-c1ccc(OC)cc1`, for which the viability in [2] was found to be 93.5%. The same measure, in the same setting: to `CCOC(=O)C1(C(=O)OCC)C[C@@H](c2c[nH]c3ccccc23)O[C@H]1c1cn(-c2ccccc2)nc1-c1ccc(F)cc1` belongs 99.1%; to `CCOC(=O)C1(C(=O)OCC)C[C@@H](c2c[nH]c3ccc(Cl)cc23)O[C@H]1c1cn(-c2ccccc2)nc1-c1ccc(Cl)cc1`, 95.2%.

In the case of `CCOC(=O)C1(C(=O)OCC)C[C@@H](c2c[nH]c3ccc(F)cc23)O[C@H]1c1cn(-c2ccccc2)nc1-c1ccc(F)cc1`, the viability in data set [2] came out at 96.2%. For the molecule `CCOC(=O)C1(C(=O)OCC)C[C@@H](c2c[nH]c3ccc(F)cc23)O[C@H]1c1cn(-c2ccccc2)nc1-c1ccccc1`, the viability in [2] worked out at 95.7%. For `CCOC(=O)C1(C(=O)OCC)C[C@@H](c2c[nH]c3ccccc23)O[C@@H]1c1cn(-c2ccccc2)nc1-c1ccc(Cl)cc1`, the MIC with Pseudomonas aeruginosa is 3.12 µg/mL (≈ 5.35 µM); with Salmonella typhi, 6.25 µg/mL (≈ 10.7 µM); against Escherichia coli it was 6.25 µg/mL (≈ 10.7 µM); against Staphylococcus aureus [3] it was 6.25 µg/mL (≈ 10.7 µM); in the data set on Shigella flexneri, 12.5 µg/mL (≈ 21.4 µM); against Candida albicans it was 12.5 µg/mL (≈ 21.4 µM). Besides, the MIC against Listeria monocytogenes is 12.5 µg/mL (≈ 21.4 µM); in the data set with Bacillus cereus, 6.25 µg/mL (≈ 10.7 µM).

In the case of `CCOC(=O)C1(C(=O)OCC)C[C@@H](c2c[nH]c3ccc(C)cc23)O[C@H]1c1cn(-c2ccccc2)nc1-c1ccccc1`, the viability in [2] is 92.3%. Turning to `CCOC(=O)C1(C(=O)OCC)C[C@@H](c2c[nH]c3ccccc23)O[C@H]1c1cn(-c2ccccc2)nc1-c1ccc(Cl)cc1`, the minimal inhibitory concentration (MIC) with Pseudomonas aeruginosa was 1.56 µg/mL (≈ 2.67 µM); in the data set with Salmonella typhi it was 1.56 µg/mL (≈ 2.67 µM); against Escherichia coli, 3.12 µg/mL (≈ 5.35 µM); with Staphylococcus aureus [3], 1.56 µg/mL (≈ 2.67 µM); in the data set with Shigella flexneri, 6.25 µg/mL (≈ 10.7 µM); against Candida albicans, 12.5 µg/mL (≈ 21.4 µM). Besides, the MIC with Listeria monocytogenes and with Bacillus cereus was 1.56 µg/mL (≈ 2.67 µM) each time. In data set [2], the viability was determined as 98.1%.

For the molecule `CCOC(=O)C1(C(=O)OCC)C[C@@H](c2c[nH]c3ccc(OC)cc23)O[C@H]1c1cn(-c2ccccc2)nc1-c1ccc(Cl)cc1`, in [2], the viability was determined as 88.8%. For `CCOC(=O)C1(C(=O)OCC)C[C@@H](c2c[nH]c3ccc(F)cc23)O[C@H]1c1cn(-c2ccccc2)nc1-c1ccc(C)cc1`, the viability in data set [2] was determined as 96.5%. Regarding `CCOC(=O)C1(C(=O)OCC)C[C@@H](c2c[nH]c3ccc(OC)cc23)O[C@H]1c1cn(-c2ccccc2)nc1-c1ccc(F)cc1`, in data set [2], the viability came to 94.8%. For `CCOC(=O)C1(C(=O)OCC)C[C@@H](c2c[nH]c3ccc(OC)cc23)O[C@H]1c1cn(-c2ccccc2)nc1-c1ccc(C)cc1`, the viability in data set [2] was determined as 88.9%. `CCOC(=O)C1(C(=O)OCC)C[C@@H](c2c[nH]c3ccccc23)O[C@H]1c1cn(-c2ccccc2)nc1-c1ccc(C)cc1`: the viability in data set [2] was determined as 95.3%. The same measure, in the same setting: to `CCOC(=O)C1(C(=O)OCC)C[C@@H](c2c[nH]c3ccccc23)O[C@H]1c1cn(-c2ccccc2)nc1-c1ccc(OC)cc1` belongs 94.3%. As to `CCOC(=O)C1(C(=O)OCC)C[C@@H](c2c[nH]c3ccc(F)cc23)O[C@H]1c1cn(-c2ccccc2)nc1-c1ccc(OC)cc1`, the viability in [2] turned out to be 94.6%. Regarding `CCOC(=O)C1(C(=O)OCC)C[C@@H](c2c[nH]c3ccc(C)cc23)O[C@H]1c1cn(-c2ccccc2)nc1-c1ccc(F)cc1`, in data set [2], the viability amounted to 99.2%. As for `CCOC(=O)C1(C(=O)OCC)C[C@@H](c2c[nH]c3ccc(C)cc23)O[C@H]1c1cn(-c2ccccc2)nc1-c1ccc(C)cc1`, in data set [2], the viability worked out at 94.2%.

Take `CCOC(=O)C1(C(=O)OCC)C[C@@H](c2c[nH]c3ccc(OC)cc23)O[C@H]1c1cn(-c2ccccc2)nc1-c1ccccc1`: the viability in data set [2] came out at 90.1%. Regarding `CCOC(=O)C1(C(=O)OCC)C[C@@H](c2c[nH]c3ccc(F)cc23)O[C@H]1c1cn(-c2ccccc2)nc1-c1ccc(Cl)cc1`, in data set [2], the viability came to 99.1%. With `CCOC(=O)C1(C(=O)OCC)C[C@@H](c2c[nH]c3ccc(Cl)cc23)O[C@H]1c1cn(-c2ccccc2)nc1-c1ccc(F)cc1`, the viability in [2] worked out at 90.5%. For `CCOC(=O)C1(C(=O)OCC)C[C@@H](c2c[nH]c3ccc(OC)cc23)O[C@H]1c1cn(-c2ccccc2)nc1-c1ccc(OC)cc1`, the viability in data set [2] is 90.1%.

On to `CCOC(=O)C1(C(=O)OCC)C[C@@H](c2c[nH]c3ccc(C)cc23)O[C@H]1c1cn(-c2ccccc2)nc1-c1ccc(Cl)cc1`, for which, in data set [2], the viability was found to be 92.3%. On to `Clc1cccc(-n2nc(C3CCNCC3)cc2/C=C/c2c[nH]c3ccc(Cl)cc23)c1`, for which inhibition of growth in the data set on Staphylococcus aureus [1] (MIC) required 1 µg/mL (≈ 2.29 µM). In the case of `CC1(C)S[C@@H]2[C@H](NC(=O)[C@H](N)c3ccc(O)cc3)C(=O)N2[C@H]1C(=O)O` [AMOXICILLIN], the minimum inhibitory concentration (MIC) worked out at 3.12 µg/mL (≈ 8.55 µM) with Pseudomonas aeruginosa; 3.12 µg/mL (≈ 8.55 µM) against Salmonella typhi; 3.12 µg/mL (≈ 8.55 µM) with Escherichia coli; 3.12 µg/mL (≈ 8.55 µM) with Staphylococcus aureus [3]; 3.12 µg/mL (≈ 8.55 µM) against Shigella flexneri; 6.25 µg/mL (≈ 17.1 µM) with Candida albicans. In addition, the minimal inhibitory concentration (MIC) against Listeria monocytogenes and against Bacillus cereus was 3.12 µg/mL (≈ 8.55 µM) in each case. Regarding `OC(Cn1cncn1)(Cn1cncn1)c1ccc(F)cc1F` [FLUCONAZOLE], in the data set with Candida albicans, the MIC amounted to 6.25 µg/mL (≈ 20.4 µM).
